# Target: T1, Autophosphorylated AurA kinase (Homo sapiens, UniProt O14965)
# T1 construct: made in house; host or cells: Sf9 insect cells
# T1 sequence (O14965 1-403): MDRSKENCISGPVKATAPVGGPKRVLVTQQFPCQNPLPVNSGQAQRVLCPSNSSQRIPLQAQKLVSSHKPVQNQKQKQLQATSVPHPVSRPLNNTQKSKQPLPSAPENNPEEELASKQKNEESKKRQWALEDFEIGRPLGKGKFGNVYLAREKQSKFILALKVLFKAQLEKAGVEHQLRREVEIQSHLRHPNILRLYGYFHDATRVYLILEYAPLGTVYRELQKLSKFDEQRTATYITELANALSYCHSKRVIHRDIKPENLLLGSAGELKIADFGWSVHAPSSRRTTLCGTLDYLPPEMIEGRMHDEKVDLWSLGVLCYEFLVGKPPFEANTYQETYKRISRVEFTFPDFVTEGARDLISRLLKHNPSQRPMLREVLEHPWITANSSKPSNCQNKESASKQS
# Experiment: AurA Luminescence-Based ATP Depletion Enzyme Assay
# Format: biochemical
# Settings: 10 μM ATP
# Protocol: AurA Luminescence-Based ATP Depletion Enzyme Assay
# Materials: Kemptide peptide substrate=LRRASLG (Biopeptide, San Diego, Calif.), ATP (Sigma Cat#A-3377, FW=551), HEPES buffer, pH 7.5, 10% Brij 35 (Calbiochem Cat#203728), MgCl2, Staurosporine (Streptomyces sp. Sigma Cat#85660-1MG), white Costar 384-well flat-bottom plate (VWR Cat#29444-088), Autophosphorylated AurA kinase (see below), Kinase-Glo™ (Promega Cat#V6712).
# Stock Solutions: 10 mM Kemptide peptide (7.72 mg/ml in water), stored at −20° C.; 100 mM HEPES buffer+0.015% Brij 35, pH 7.5 (5 ml 1M HEPES stock+75 μL 10% Brij 35+45 ml miliQH2O); 10 mM ATP (5.51 mg/ml in dH2O) stored at −20° C. (diluted 50 μl into total of 10 ml miliQH2O daily=50 μM ATP working stock); 100 mM MgCl2; 200 μM Staurosporine, 2× Kinase-Glo™ reagent (made fresh or stored at −20° C.).
# AurA Autophosphorylation Reaction: ATP and MgCl2 were added to 1-5 mg/ml AurA at final concentrations of 10 mM and 100 mM, respectively. The autophosphorylation reaction was incubated at 21° C. for 2-3 h. The reaction was stopped by the addition of EDTA to a final concentration of 50 mM, and samples were flash frozen with liquid N2 and stored at −80° C.
# Standard Assay Setup for 384-well format (20 μl kinase reaction, 40 μl detection reaction): 10 mM MgCl2; 0.2 mM Kemptide peptide; 1 μl test compound (in DMSO); 0.3 μg/ml Autophosphorylated AurA kinase; 10 μM ATP; 100 mM HEPES+0.015% Brij buffer. Positive controls contained DMSO with no test compound. Negative controls contained 5 μM staurosporine. The kinase reactions were initiated at time t=0 by the addition of ATP. Kinase reactions were incubated at 21° C. for 45 min, then 20 μl of Kinase-Glo™ reagent were added to each well to quench the kinase reaction and initiate the luminescence reaction. After a 20 min incubation at 21° C., the luminescence was detected in a plate-reading luminometer.
# The Sf9 insect cell pellets (˜18 g) produced from 6 L of cultured cells expressing human Aurora-2 were resuspended in 50 mM Na Phosphate pH 8.0, 500 mM NaCl, 10% glycerol, 0.2% n-octyl-β-D-glucopyranoside (BOG) and 3 mM β-Mercaptoethanol (BME). One tablet of Roche Complete, EDTA-free protease inhibitor cocktail (Cat#1873580) and 85 units Benzonase (Novagen Cat#70746-3)) were added per 1 L of original culture. Pellets were resuspended in approximately 50 ml per 1 L of original culture and were then sonicated on ice with two 30-45 sec bursts (100% duty cycle). Debris was removed by centrifugation and the supernatant was passed through a 0.8 μm syringe filter before being loaded onto a 5 ml Ni^2+ HiTrap column (Pharmacia). The column was washed with 6 column volumes of 50 mM Na Phosphate pH 8.0, 500 mM NaCl, 10% glycerol, 3 mM BME. The protein was eluted using a linear gradient of the same buffer containing 500 mM Imidazole. The eluant (24 ml) was cleaved overnight at 4° C. in a buffer containing 50 mM Na Phosphate pH 8.0, 500 mM NaCl, 10% glycerol, 3 mM BME and 10,000 units of TEV (Invitrogen Cat#10127-017). The protein was passed over a second nickel affinity column as described above; the flow-through was collected. The cleaved protein fractions were combined and concentrated using spin concentrators. Further purification was done by gel filtration chromatography on a S75 sizing column in 50 mM Na Phosphate (pH 8.0), 250 mM NaCl, 1 mM EDTA, 0.1 mM AMP-PNP or ATP buffer, and 5 mM DTT. The cleanest fractions were combined and concentrated to approximately 8-11 mg/ml, and were either flash frozen in liquid nitrogen in 120 μl aliquots and stored at −80° C., or stored at 4° C.
row,Compound,IC50
1,CCN(CCC#N)S(=O)(=O)c1ccc(-c2ccnc(Nc3cccc(C)c3)n2)s1,< 100 nM
2,C[C@@H](NC(=O)c1ccc(-c2ccnc(Nc3cccc(CN4CCC(O)CC4)c3)n2)s1)c1ccccc1,< 100 nM
3,CC(O)c1cccc(Nc2nccc(-c3ccc(S(=O)(=O)Cc4ccccc4)s3)n2)c1 (stereo not shown),100 to 500 nM
4,O=C(NCc1ccccc1)c1ccc(-c2ccnc(Nc3ccc(CCO)cc3)n2)s1,< 100 nM
5,CCC1CCCCN1S(=O)(=O)c1ccc(-c2ccnc(Nc3cccc(C(C)O)c3)n2)s1 (stereo not shown),100 to 500 nM
6,COc1ccc(Nc2nccc(-c3ccc(Br)s3)n2)cc1C(=O)N(C)C,100 to 500 nM
7,CN(Cc1ccccc1)C(=O)c1ccc(-c2ccnc(Nc3ccc(CCO)cc3)n2)s1,< 100 nM
8,CCC(=O)Nc1ccc(-c2ccnc(Nc3cccc(C)c3)n2)s1,100 to 500 nM
9,CC(O)c1cccc(Nc2nccc(-c3ccc(S(=O)(=O)N(C)C)s3)n2)c1 (stereo not shown),< 100 nM
10,OC1CCN(Cc2cccc(Nc3nccc(-c4ccc(CNc5ccccc5Cl)s4)n3)c2)CC1,> 500 nM
11,CCN(CCC#N)C(=O)c1ccc(-c2ccnc(Nc3cccc(C(C)O)c3)n2)s1 (stereo not shown),100 to 500 nM

# Other lines, results leading:
row,IC50,Compound
1,100 to 500 nM,CNC(=O)c1ccc(-c2ccc(-c3ccnc(Nc4cccc(C(C)O)c4)n3)s2)cc1 (stereo not shown)
2,100 to 500 nM,CC(O)c1cccc(Nc2nccc(-c3ccc(-c4cccc(CC#N)c4)s3)n2)c1 (stereo not shown)
3,< 100 nM,COc1ccc(Nc2nccc(-c3ccc(Br)s3)n2)cc1OC
4,100 to 500 nM,CN(C)C1CCN(c2cccc(Nc3nccc(-c4ccc(C(=O)NCc5ccco5)s4)n3)c2)C1 (stereo not shown)
5,< 100 nM,C[C@@H](NC(=O)c1ccc(-c2ccnc(Nc3cccc(CN4CCN(CCO)CC4)c3)n2)s1)c1ccccc1
6,> 500 nM,CC(O)c1cccc(Nc2nccc(-c3ccc(-c4ccncc4)s3)n2)c1 (stereo not shown)
7,< 100 nM,CCN(CCC#N)S(=O)(=O)c1ccc(-c2ccnc(Nc3cccc(C(C)O)c3)n2)s1 (stereo not shown)
8,100 to 500 nM,O=C(c1cccc(Nc2nccc(-c3ccc(Br)s3)n2)c1)N1CCN(CCO)CC1
9,100 to 500 nM,CN(C)C(=O)c1cccc(Nc2nccc(-c3ccc(Br)s3)n2)c1
10,> 500 nM,Brc1ccc(-c2ccnc(Nc3cccc(CN4CCOCC4)c3)n2)s1
11,100 to 500 nM,CC(O)c1cccc(Nc2nccc(-c3ccc(-c4cccnc4)s3)n2)c1 (stereo not shown)

# Reference: US7977481B2, “Pyrimidinyl-thiophene kinase modulators” (SGX Pharmaceuticals, Inc., priority 2005, dated 2011)
